According to publication PMC9637222, “Autoinducer-2 and bile salts induce c-di-GMP synthesis to repress the T3SS via a T3SS chaperone” (Nature Communications, 2022):
Values joined by “and” are separate entries in the source; they are usually repeats but may differ in a detail not shown here. Equal values may be shown once.

Legend:
YeaJ-LBD = target: T1, YeaJ-LBD (Salmonella enterica subsp. enterica serovar Typhimurium, UniProt Q8ZPW4); experiment: ITC: DPD/AI-2 binding to YeaJ-LBD; design: species or system S. Typhimurium
T1 sequence (Q8ZPW4 30-304): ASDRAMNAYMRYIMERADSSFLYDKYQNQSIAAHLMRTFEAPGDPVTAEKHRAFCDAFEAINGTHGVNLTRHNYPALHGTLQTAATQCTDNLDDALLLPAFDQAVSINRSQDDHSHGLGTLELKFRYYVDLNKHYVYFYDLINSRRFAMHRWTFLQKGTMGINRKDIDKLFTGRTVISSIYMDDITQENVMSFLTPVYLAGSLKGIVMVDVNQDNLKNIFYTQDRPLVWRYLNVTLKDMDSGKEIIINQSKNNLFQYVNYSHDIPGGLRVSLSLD
Experimental: (§1) ITC measurements were carried out at 20 °C with a Nano ITC Standard Volume isothermal calorimeter (TA Instruments, New Castle, DE) controlled by the ITCRun software. The N-terminal His6 tags of all purified proteins were removed before ITC analysis. For titrations with DPD/AI-2 (Omm Scientific), the tag-free proteins were dialyzed against a Tris buffer (25 mM Tris-HCl, 150 mM NaCl, pH 7.5) and diluted to 70 μM, while DPD/AI-2 was diluted with the same buffer to 700 μM. […] After being degassed, 1 ml of the protein and 250 μl of the ligand solution were added to the sample cell and the syringe, respectively. There were 25 injections per experiment and the stirring speed was 200 rpm. In control experiments, the ligand solution was titrated into the buffer in the sample cell to obtain the heat of dilution. Microcalorimetric data were corrected by subtracting the heats of dilution and fit to the independent binding site model using the NanoAnalyze software.

YeaJ-LBDY210A = YeaJ-LBDY210A (Salmonella enterica subsp. enterica serovar Typhimurium, UniProt Q8ZPW4, Y210A); experiment: ITC: DPD/AI-2 binding to YeaJ-LBD Y210A mutant; design: species or system S. Typhimurium; conditions: individual experiments, source data Fig. 2d
Experimental: as §1

YeaJ-LBDD239A = YeaJ-LBDD239A (Salmonella enterica subsp. enterica serovar Typhimurium, UniProt Q8ZPW4, D239A); experiment: ITC: DPD/AI-2 binding to YeaJ-LBD D239A mutant; design: species or system S. Typhimurium; conditions: head prints YeaJ-LBDY239A, individual experiments, source data Fig. 2d
Experimental: as §1

WP_000766134-LBD = target: T2, WP_000766134-LBD (Escherichia coli O157:H7, UniProt A0A0H3JEN8); experiment: ITC: DPD/AI-2 binding to GAPES1 domain of the YeaJ homolog from EHEC O157:H7
T2 sequence (A0A0H3JEN8 31-304): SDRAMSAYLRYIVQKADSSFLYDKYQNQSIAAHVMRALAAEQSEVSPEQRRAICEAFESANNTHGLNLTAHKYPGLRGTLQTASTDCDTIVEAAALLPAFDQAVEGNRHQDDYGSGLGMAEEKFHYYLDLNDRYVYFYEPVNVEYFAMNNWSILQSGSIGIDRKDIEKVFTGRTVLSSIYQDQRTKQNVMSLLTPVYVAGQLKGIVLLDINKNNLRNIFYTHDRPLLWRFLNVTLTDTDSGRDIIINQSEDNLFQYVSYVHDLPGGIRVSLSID

KMK13526-LBD = KMK13526-LBD (Pluralibacter gergoviae, UniProt A0A0J5L7D7); experiment: ITC: DPD/AI-2 binding to KMK13526-LBD; conditions: ITC binding stoichiometry n, individual replicates, Supplementary Figure 7b
KMK13526-LBD, sequence (A0A0J5L7D7 31-310): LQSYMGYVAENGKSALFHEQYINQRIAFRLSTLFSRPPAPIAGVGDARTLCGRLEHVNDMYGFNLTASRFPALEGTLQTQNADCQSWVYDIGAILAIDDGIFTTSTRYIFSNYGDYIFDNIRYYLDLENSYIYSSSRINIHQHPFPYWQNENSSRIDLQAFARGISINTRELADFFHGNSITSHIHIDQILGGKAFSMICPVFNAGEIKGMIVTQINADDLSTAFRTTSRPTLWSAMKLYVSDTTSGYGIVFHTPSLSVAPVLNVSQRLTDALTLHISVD

WP_034494714-LBD = WP_034494714-LBD (Buttiauxella agrestis, UniProt A0A085GF42); experiment: ITC: DPD/AI-2 binding to WP_034494714-LBD; conditions: individual replicates, Supplementary Figure 7c
WP_034494714-LBD, sequence (A0A085GF42 27-302): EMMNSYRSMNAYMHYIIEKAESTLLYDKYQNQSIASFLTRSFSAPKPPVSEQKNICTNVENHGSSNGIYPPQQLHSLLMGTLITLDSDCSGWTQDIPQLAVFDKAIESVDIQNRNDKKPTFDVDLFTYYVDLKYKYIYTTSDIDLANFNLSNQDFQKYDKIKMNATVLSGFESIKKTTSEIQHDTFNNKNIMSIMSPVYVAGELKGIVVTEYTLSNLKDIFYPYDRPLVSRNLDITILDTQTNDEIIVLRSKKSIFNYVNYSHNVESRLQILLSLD

[1] = target: KMK13526-LBD (H216Y/Q245D) (Pluralibacter gergoviae, UniProt A0A0J5L7D7, H216Y/Q245D); conditions: ITC binding stoichiometry n, individual replicates, Supplementary Figure 7d
KMK13526-LBD (H216Y/Q245D), sequence (A0A0J5L7D7 31-310 H216Y/Q245D): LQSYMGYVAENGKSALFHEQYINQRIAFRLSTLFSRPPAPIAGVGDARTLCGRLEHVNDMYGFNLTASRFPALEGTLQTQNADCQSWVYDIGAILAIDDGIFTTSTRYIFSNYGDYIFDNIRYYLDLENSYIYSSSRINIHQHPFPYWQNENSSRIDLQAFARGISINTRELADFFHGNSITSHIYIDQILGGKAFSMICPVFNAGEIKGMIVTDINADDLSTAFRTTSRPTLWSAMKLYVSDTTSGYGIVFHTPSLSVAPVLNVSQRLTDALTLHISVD

YeaJ = experiment: In vitro DGC activity assay of YeaJ (membrane fractions, HPLC of c-di-GMP); assay type: biochemical, S. Typhimurium; conditions: 100 μM GTP; for Concentration of c-di-GMP: 30 °C
S. Typhimurium = experiment: Cellular c-di-GMP quantification by LC-MS/MS; assay type: cell-based; conditions: for Change of intracellular c-di-GMP concentration (in words): exogenous DPD/AI-2 (10 μM, 30 min)
Experimental: For stimulation with AI-2, the DPD/AI-2 solution was added to the shaking culture at OD600 of 1.3, followed by another 30 min of incubation at 37 °C. For induction by porcine bile salts and individual bile components (Sigma-Aldrich), substances were added to the static culture at OD600 of 1.1, followed by another 30 min of incubation at 37 °C. About 15 ml of culture was centrifuged and the cells were washed twice with phosphate-buffered saline (PBS, pH 7.0). The cell pellets were resuspended in 500 μl of extraction solution (acetonitrile/methanol/water, 40:40:20, v/v/v) and cooled on ice for 15 min. The samples were boiled for 10 min at 95 °C and then cooled again on ice for 15 min. After centrifugation at 20,000×g and 4 °C for 10 min, supernatants were transferred to new tubes on ice. The remaining pellets were used for two more extraction steps with 500 μl of the extraction solution without heating. Pooled supernatants for each sample were lyophilized, and pellets were resolubilized in 200 μl of distilled water. C-di-GMP concentrations were then measured by LC-MS/MS[63] (AB SCIEX QTRAP 6500+ LC-MS/MS System). Intracellular levels of c-di-GMP were normalized to the number of bacterial cells for each sample.

SipB = target: SipB; design: species or system S. Typhimurium; conditions: ITC, individual replicates, Supplementary Figure 19a; read-out: Kd, SicA binding to SipB
Experimental: as §1
(§2) Supplementary Fig. 19 Isotherms representing binding of SicA and its variants with InvF, SipB and SipC as measured by ITC
(§3) ITC data and plots of injected heat for 25 automatic injections of 100 μM SicA (a, d, f),SicAK27A (b) or SicAN70A (c, e, g) into the sample cellcontaining 10 μM SipB (a-c), InvF (d, e), or SipC (f,g) are shown inthe upper and lower plots, respectively. […]

InvF = target: T3, InvF (Salmonella typhimurium, UniProt P69343); conditions: individual replicates, Supplementary Figure 19d
T3 sequence (P69343 1-216): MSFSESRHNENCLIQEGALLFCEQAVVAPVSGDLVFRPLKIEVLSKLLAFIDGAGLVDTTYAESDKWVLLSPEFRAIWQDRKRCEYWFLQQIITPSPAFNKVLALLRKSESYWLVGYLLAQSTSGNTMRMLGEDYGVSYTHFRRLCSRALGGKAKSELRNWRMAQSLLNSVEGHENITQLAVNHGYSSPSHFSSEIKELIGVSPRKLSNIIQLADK
Experimental: as §1, §2, §3

SipC = target: T4, SipC (Salmonella typhimurium, UniProt E1WAC8); assay type: binding, S. Typhimurium; conditions: individual replicates, Supplementary Figure 19f
T4 construct: His6 (N, cleaved yes); made in house; host or cells: E. coli BL21(DE3) (pET28a-sipC)
T4 sequence (E1WAC8 whole entry): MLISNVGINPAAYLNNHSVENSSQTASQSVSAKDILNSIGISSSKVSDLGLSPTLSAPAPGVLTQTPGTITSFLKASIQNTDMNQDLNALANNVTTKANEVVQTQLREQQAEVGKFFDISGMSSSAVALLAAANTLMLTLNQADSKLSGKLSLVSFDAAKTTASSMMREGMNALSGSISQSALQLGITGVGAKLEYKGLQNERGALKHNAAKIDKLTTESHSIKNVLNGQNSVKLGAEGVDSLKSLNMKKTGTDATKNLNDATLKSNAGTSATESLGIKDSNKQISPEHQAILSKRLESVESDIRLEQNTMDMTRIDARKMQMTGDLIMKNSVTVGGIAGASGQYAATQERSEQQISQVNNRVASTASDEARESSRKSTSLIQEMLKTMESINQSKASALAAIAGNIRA
T4 sequence (P69066 whole entry partner): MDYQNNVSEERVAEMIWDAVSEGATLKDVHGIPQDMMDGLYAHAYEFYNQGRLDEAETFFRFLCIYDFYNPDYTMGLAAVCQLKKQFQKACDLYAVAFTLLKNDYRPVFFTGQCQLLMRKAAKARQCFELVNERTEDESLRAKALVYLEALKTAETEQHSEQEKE
Experimental: as §1, §2, §3

[2] = individual experiments, source data Fig. 1d

In the case of `CC(=O)C(=O)[C@@H](O)CO` [DPD/AI-2, autoinducer-2], the Kd (YeaJ-LBD; 20 °C, mean ± s.d. of three independent experiments) is reported as 0.15 ± 0.02 µM, the Kd (YeaJ-LBD; [2]) is reported as 0.16 µM and 0.13 µM and the “n (complex stoichiometry)” value (YeaJ-LBD; [2]) is reported as 1.20 and 1.19 and 1.04. The Kd (YeaJ-LBDY210A) was 23 µM and 29 µM and 26 µM, the “n (complex stoichiometry)” value (YeaJ-LBDY210A) was 1.02 and 0.93 and 1.04 and the Kd (YeaJ-LBDD239A) was 17 µM. The “n (complex stoichiometry)” value (YeaJ-LBDD239A) was 0.97 and 0.93, the “n, DPD/AI-2 binding to WP_000766134-LBD” value (WP_000766134-LBD; ITC binding stoichiometry n, individual replicates, Supplementary Figure 7a) was 1.18 and 1.17 and 1.13 and the “AI-2 binding affinity (in words)” value (WP_000766134-LBD; ITC, GAPES1 domain of the YeaJ homolog from EHEC O157:H7) was “high affinity”. For the same compound, the Kd (WP_000766134-LBD; read-out: Kd, DPD/AI-2 binding to WP_000766134-LBD, ITC, individual replicates, Supplementary Figure 7a) was 0.12 µM and 0.17 µM, the “n, DPD/AI-2 binding to KMK13526-LBD” value (KMK13526-LBD) was 0.93 and 1.03 and 0.86 and the “n, DPD/AI-2 binding to WP_034494714-LBD” value (WP_034494714-LBD; ITC binding stoichiometry n) was 0.94 and 0.97 and 0.98. For the same compound, the Kd (WP_034494714-LBD; read-out: Kd, DPD/AI-2 binding to WP_034494714-LBD, ITC) was 32 µM and 39 µM and 38 µM, the “n, DPD/AI-2 binding to KMK13526-LBDH216Y/Q245D” value [1] was 1.11 and 1.03 and 1.17 and the “Concentration of c-di-GMP” value (YeaJ; 100 μM DPD/AI-2, 30 min) was 19.68 µM and 20.02 µM and 21.70 µM. The “Concentration of c-di-GMP” value (YeaJ; 100 μM DPD/AI-2, 60 min) was 32.50 µM and 32.49 µM and 31.69 µM, the “Concentration of c-di-GMP” value (YeaJ; 200 μM DPD/AI-2, 30 min) was 39.23 µM and 36.03 µM and 36.70 µM and the “Concentration of c-di-GMP” value (YeaJ; 200 μM DPD/AI-2, 60 min) was 44.10 µM and 43.39 µM and 41.58 µM. For the same compound, the “Effect on DGC activity of YeaJ in synthesizing c-di-GMP (in words)” value (YeaJ; in vitro, membrane fractions) was “stimulates the activity of YeaJ”, the “Change of intracellular c-di-GMP concentration (in words)” value (S. Typhimurium; ΔluxS mutant) was “significant increase” and the “c-di-GMP (fmol/107 cells)” value (S. Typhimurium; ΔluxS, 10 μM DPD/AI-2 for 30 min, LB, OD600 1.3, biological replicates) was 31.06 fmol/107 cells and 29.99 fmol/107 cells and 27.56 fmol/107 cells. For the same compound, the “Change of intracellular c-di-GMP concentration (in words)” value (S. Typhimurium; ΔyeaJΔluxS mutant) was “did not increase”.

With SicA the Kd (SipB) was 0.5 µM and 0.56 µM and 0.54 µM, the “n, SicA binding to InvF” value (InvF; ITC binding stoichiometry n) was 1.00 and 1.13 and 1.16 and the Kd (InvF; read-out: Kd, SicA binding to InvF, ITC) was 0.47 µM and 0.42 µM and 0.49 µM. For the same compound, the “n, SicA binding to SipC” value (SipC; ITC binding stoichiometry n) was 1.04 and 1.18 and 1.02 and the Kd (SipC; ITC, read-out: Kd, SicA binding to SipC) was 0.67 µM and 0.55 µM.
